Measurements reported in patent US20210100832A1, “INJECTABLE COMPOSITION FOR THE TREATMENT OF MUSCULOSKELETAL DISORDERS AND METHODS OF USE THEREOF” (Patchor Ltd., priority 2019, published 2021).

Experiments:
[1] = test system: wistar rats with knee osteoarthritis (ACLT with MMx); experiment: Von Frey filament mechanical nociceptive threshold test in rat knee OA; format: in vivo
Experimental: As described in Example 3, OA was induced on one leg of wistar rats while the contralateral knee served as self-control. Thereafter, 14 rats were divided into two experimental groups. 7 were treated by injection of HA to the knee, as a positive control, and 7 were injected with GR. Injection volume was 150 microliters.
The experimental outcome was assessed using the Von Frey filament method for detection of mechanical nociceptive threshold test.

galectin-3 = galectin-3 (Homo sapiens, UniProt P17931); conditions: reference [8]; cited from earlier work
Chain of galectin-3 (P17931 whole entry, species assumed): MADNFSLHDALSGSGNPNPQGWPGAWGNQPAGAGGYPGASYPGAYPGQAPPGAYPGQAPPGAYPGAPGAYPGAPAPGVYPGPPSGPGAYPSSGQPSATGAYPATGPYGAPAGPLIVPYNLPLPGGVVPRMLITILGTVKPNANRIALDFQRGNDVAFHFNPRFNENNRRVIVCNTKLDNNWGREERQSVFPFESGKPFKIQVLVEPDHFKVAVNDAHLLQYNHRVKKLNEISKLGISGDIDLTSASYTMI

[2] = test system: wistar rats with knee osteoarthritis (ACLT with MMx); experiment: Weight bearing (incapacitance tester) in rat knee OA induced by ACLT with medial meniscectomy; format: in vivo; conditions: 150 microliters into the knee; 20 days post treatment (day 34); *p=0.0012, **p=0.0458; FIG. 2
Experimental: Induction of knee osteoarthritis was performed by an anterior cruciate ligament transaction (ACLT) with medial meniscectomy (MMx) on one leg of wistar rats while the contralateral knee served as self-control. After the procedure the animals were divided into three experimental groups of 7 animals per group. Control group was treated by injection of 150 microliters of 1% HA into the knee. Experimental groups were treated by injection of 150 microliters of either GR or GR-HA.
Formulation for dosing of control group was taken from commercial HA-1% viscosupplementation injection (Arthrease 1% sodium hyaluronate Lot R10008G, produced by Bio-Technology General). GR+HA was prepared by Patchor's standard procedures, as described in International Patent Publication No. WO 2009/150651 A1, of mixing HA with GM or with GR. All injections volume was 150 microliters. The positive control HA group was treated immediately post surgery and again at day 14 post surgery, and the HA−CM−GM was treated only once at day 14 post surgery. The experimental outcome was assessed by measuring weight bearing on the OA leg using an incapacitance tester.

Substance | pain response compared to control HA (Von Frey) ([1]; 150 microliters into OA knee, FIG. 3) | nociceptive threshold of OA leg versus control HA ([1]; 1 day post treatment, p=0.02) | nociceptive threshold of OA leg versus control HA ([1]; 19 days post treatment, p=0.007) | nociceptive reaction in the healthy legs, GR versus HA group ([1]; healthy contralateral legs, data not shown) | inhibition of galectin-3 (galectin-3) | weight bearing ability on the operated OA leg compared to HA group [2]
Galactoarabino-Rhamnogalacturonan [GR] | significantly reduced pain response | significant reduction in nociceptive threshold | significant reduction in nociceptive threshold | No difference in nociceptive reaction | potent inhibitors of galectin-3 | significant increase in weight bearing ability
Galactomannan [GM] | – | – | – | – | potent inhibitors of galectin-3 | –
